Laboratory results taken from publication PMC7315737, “The putative Escherichia coli dehydrogenase YjhC metabolises two dehydrated forms of N-acetylneuraminate produced by some sialidases” (Bioscience Reports, 2020).

Biological target: T1, YjhC (Escherichia coli, UniProt P39353)
T1 construct: gene nanY; full-length ORF from ASKA library in pCA24N, N-terminal His6-tag kept, expressed in E. coli BL21
Assay: LC-MS of ligand co-purified with the enzyme
Assay type: binding
Details: co-purified after metal affinity and gel filtration

T1 sequence (P39353 whole entry): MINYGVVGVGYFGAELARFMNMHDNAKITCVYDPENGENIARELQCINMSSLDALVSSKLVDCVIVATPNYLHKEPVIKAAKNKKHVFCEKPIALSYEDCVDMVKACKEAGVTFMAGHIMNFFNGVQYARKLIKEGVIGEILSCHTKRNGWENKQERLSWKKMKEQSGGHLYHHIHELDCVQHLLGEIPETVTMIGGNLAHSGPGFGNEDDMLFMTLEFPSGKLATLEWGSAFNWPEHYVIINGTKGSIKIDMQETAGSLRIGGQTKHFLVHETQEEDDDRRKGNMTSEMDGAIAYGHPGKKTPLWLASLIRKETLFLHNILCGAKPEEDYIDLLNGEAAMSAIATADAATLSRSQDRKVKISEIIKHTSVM

In the case of NC(=O)C1=CN([C@@H]2O[C@H](COP(=O)(O)OP(=O)(O)OC[C@H]3O[C@@H](n4cnc5c(N)ncnc54)[C@H](O)[C@@H]3O)[C@@H](O)[C@H]2O)C=CC1 [NADH], the co-purified ligand detected is reported as “presence of small amounts of NAD^+ and NADH”.
